From PMC7230232, “Secondary Metabolites from the Culture of the Marine-derived Fungus Paradendryphiella salina PC 362H and Evaluation of the Anticancer Activity of Its Metabolite Hyalodendrin” (Marine Drugs, 2020)
“And” between values parts separate entries of the source, which are not always exact repeats. Equal values may be shown once. Read-outs that look alike come from different tables or passages of the source.

Experiments:
MCF7 cells = test: MTT cell viability assay, MCF7; assay type: cell-based, human; conditions: Homo sapiens
Description: (§1) Cellular viability was determined by the MTT (methylthiazolyldiphenyl-tetrazolium bromide) assay. Briefly, cells were exposed to the indicated concentrations of crude extracts or compounds 1–4 for five doubling times and then incubated for 3 h at 37 °C with MTT. Formazan crystals were then dissolved in DMSO and optical density measured at 570 nm in a microplate reader. The half-maximal inhibitory concentration (IC50) was determined. Values given for crude extracts are averages of at least two experiments done in duplicate. IC50 values calculated for the four isolated compounds and the commercially available 4-hydroxy-tamoxifen (Sigma-Aldrich) are averages of at least three experiments done in duplicate.

MCF7-Sh-WISP2 cells [1] = test: MTT cell viability assay, MCF7-Sh-WISP2; assay type: cell-based, human; conditions: for IC50: Homo sapiens
Description: as §1

MDA-MB-231 = test: MTT cell viability assay, MDA-MB-231; assay type: cell-based; conditions: Homo sapiens, breast, mesenchymal, invasive
Description: as §1

SW48 = test: MTT cell viability assay, SW48; assay type: cell-based; conditions: Homo sapiens, colon
Description: as §1

DLD1 = test: MTT cell viability assay, DLD1; assay type: cell-based; conditions: Homo sapiens, DLD-1; colon
Description: as §1

HT29 = test: MTT cell viability assay, HT29; assay type: cell-based; conditions: Homo sapiens, HT-29; colon
Description: as §1

HT29 5FU = test: MTT cell viability assay, HT29 5FU; assay type: cell-based; conditions: Homo sapiens, HT-29; colon; 5-fluorouracil resistant
Description: as §1

HT29 oxa = test: MTT cell viability assay, HT29 oxa; assay type: cell-based; conditions: Homo sapiens, HT-29; colon; oxaliplatin resistant
Description: as §1

HT29 SN-38 = test: MTT cell viability assay, HT29 SN-38; assay type: cell-based; conditions: Homo sapiens, HT-29; colon; SN-38 resistant
Description: as §1

HCT116 5FU = test: MTT cell viability assay, HCT116 5FU; assay type: cell-based; conditions: Homo sapiens, HCT-116; colon; 5-fluorouracil resistant
Description: as §1

HCT116 oxa = test: MTT cell viability assay, HCT116 oxa; assay type: cell-based; conditions: Homo sapiens, HCT-116; colon; oxaliplatin resistant
Description: as §1

LS513 = test: MTT cell viability assay, LS513; assay type: cell-based; conditions: Homo sapiens, LS-513; colon
Description: as §1

LOVO = test: MTT cell viability assay, LOVO; assay type: cell-based; conditions: Homo sapiens, colon
Description: as §1

RKO = test: MTT cell viability assay, RKO; assay type: cell-based; conditions: Homo sapiens, colon
Description: as §1

LS174T = test: MTT cell viability assay, LS174T; assay type: cell-based; conditions: Homo sapiens, colon
Description: as §1

SW480 = test: MTT cell viability assay, SW480; assay type: cell-based; conditions: Homo sapiens, colon
Description: as §1

HeLa = test: MTT cell viability assay, HeLa; assay type: cell-based; conditions: Homo sapiens, cervix
Description: as §1

C19 = test: MTT cell viability assay, C19 immortalized fibroblasts; assay type: cell-based; conditions: Homo sapiens, Fibroblast; normal; fibroblastic
Description: as §1

[2] = molecular target: T1, NADPH-dependent thioredoxin reductase (Trr1) (Saccharomyces cerevisiae, UniProt P29509); test: In vitro reduction by NADPH thioredoxin reductase alone (NADPH consumption); assay type: biochemical; conditions: yeast NTR (Trr1) alone, versus ACN control
T1 construct: made in house
Description: (§2) Thioredoxin 1 (Trx1) and NADPH-dependent thioredoxin reductase (Trr1) from Saccharomyces cerevisiae were cloned and produced as described previously. Thioredoxin activity was measured spectrophotometrically (Uvikon XS; Secomam) in 1 mL cuvette by following NADPH consumption at 340 nm over 2 min. The reaction was performed in 100 µM NADPH, 246 nM of Trr1 in 30 mM Tris-HCl buffer (pH 7.9) and in the presence or not of 65 nM of Trx1. The reaction was initiated by adding 10 µL of 50 mM of 3 in acetonitrile or 10 µL of acetonitrile (ACN, Control experiment). For each condition, NADPH consumption experiments were performed in triplicate and results were represented as the mean ± SD. The significance of the results was evaluated by Student’s t-test.

[3] = molecular target: T2, thioredoxin system (Trr1+Trx1) (Saccharomyces cerevisiae, UniProt P22217); test: In vitro reduction by the reconstituted thioredoxin system (NADPH consumption); assay type: biochemical; conditions: versus ACN control
T2 construct: made in house
Description: as §2

MCF7-Sh-WISP2 cells [4] = test: Human cell stress array and immunoblotting; assay type: cell-based
Description: MCF7-Sh-WISP2 cells were treated for 48 h with 5.7 µM of 3 (corresponding to 3.8 × 10^−5 nmol of drug per cell), harvested and lysed for 30 min on ice with 0.4 mL of cell lysis buffer containing a cocktail of protease inhibitors. The lysates were centrifuged at 14,000 g for 5 min at 4 °C. Human cell stress proteins were detected using the Proteome Profiler human cell stress array kit (# ARY018, R&D systems) according to the manufacturer’s instructions. The chemiluminescent images of the slide were captured with the Chemidoc system (Biorad).
MCF7-Sh-WISP2 cells were incubated for 72 h at 37 °C with 2.4 µM of 3 (corresponding to 3.8 × 10^−5 nmol of drug per cell). Cells were then washed twice with Phosphate-Buffer Saline (PBS) 1X and lysed for 30 min in RIPA buffer (150 mM NaCl, 1.0% IGEPAL® CA-630, 0.5% sodium deoxycholate, 0.1% SDS, 50 mM Tris, pH 8.0). Proteins (20 µg) were resolved on sodium dodecyl sulfate polyacrylamide gel (SDS/PAGE) (12%) and blotted onto nitrocellulose membranes (Bio-Rad). […] Antigens were detected using an enhanced chemiluminescence kit (Biorad) using the Chemidoc system (Biorad). Protein quantitation was calculated using Image Lab software developed by Bio-Rad.

MCF7-Sh-WISP2 cells [5] = test: γ-H2AX foci immunofluorescence; assay type: cell-based, human; conditions: 1 µM
MCF7-Sh-WISP2 cells [6] = test: Cell cycle progression by propidium iodide flow cytometry; assay type: cell-based, human; conditions: 380 nM
Description: Figure S5. Cell cycle progression of MCF7-Sh-WISP2 cells in response to compound 3 exposure.
After treatment with 380 nM of 3 (hyalodendrin) (corresponding to 1.9 10-5 nmol of drug per cell), cells were collected, counted and fixed with 70 % ethanol. Cells were then stained with 40 μg/mL propidium iodide (PI) (Biolegend) containing RNaseA (100 µg/mL), prior analysis on a Gallios flow cytometer (Beckman Coulter, Inc, Villepinte, France). The results were analyzed using the Venturi One V6 software (Applied Cytometry).
(1 picture or pasted object on this page, not shown here)

T1 sequence (P29509 whole entry): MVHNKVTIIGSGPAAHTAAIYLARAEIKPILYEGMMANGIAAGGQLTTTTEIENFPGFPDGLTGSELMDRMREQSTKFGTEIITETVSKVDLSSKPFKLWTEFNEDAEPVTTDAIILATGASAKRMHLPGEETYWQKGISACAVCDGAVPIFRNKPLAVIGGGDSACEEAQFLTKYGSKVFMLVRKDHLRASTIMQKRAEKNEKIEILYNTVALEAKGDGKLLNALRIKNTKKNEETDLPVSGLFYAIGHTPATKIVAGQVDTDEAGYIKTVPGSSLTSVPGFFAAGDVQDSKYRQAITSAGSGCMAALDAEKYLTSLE
T2 sequence (P22217 whole entry): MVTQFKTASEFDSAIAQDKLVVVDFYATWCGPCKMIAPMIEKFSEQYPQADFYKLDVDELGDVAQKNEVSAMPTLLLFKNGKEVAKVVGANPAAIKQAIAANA

For `CN1C(=O)[C@@]2(Cc3ccccc3)SS[C@]1(CO)C(=O)N2C` [Compound 3, (3R, 6R) Hyalodendrin], the IC50 (MCF7 cells; MCF7, read-out: IC50 MCF7, breast, epithelial) was 216 ± 6 nM, the IC50 (MCF7 cells; MCF7, read-out: IC50 MCF7, pure compounds, MTT) was 0.07 µg/mL and 220 nM and the IC50 (MCF7-Sh-WISP2 cells [1]; read-out: IC50 MC7-Sh-WISP2) was 142 ± 3 nM. The IC50 (MCF7-Sh-WISP2 cells [1]; read-out: IC50 MCF7-Sh-WISP2) was 0.046 µg/mL and 140 nM, the “IC50 for MCF7-Sh-WISP2 expressed as amount of 3 per cell” value (MCF7-Sh-WISP2 cells [1]; corresponds to IC50 of 140 nM in the viability assay) was 3.8 × 10^−5 nmol of 3 per cell and the IC50 (MDA-MB-231) was 132 ± 13.4 nM. The IC50 (SW48) was 149 ± 15.5 nM, the IC50 (DLD1) was 40 ± 5.8 nM and the IC50 (HT29) was 58 ± 13.7 nM. It also gave an IC50 (HT29 5FU) of 147 ± 10.2 nM, an IC50 (HT29 oxa) of 142 ± 2.6 nM and an IC50 (HT29 SN-38) of 93.8 ± 13.6 nM. The IC50 (HCT116 5FU) was 72 ± 10.9 nM, the IC50 (HCT116 oxa) was 25.7 ± 4.2 nM and the IC50 (LS513) was 78 ± 9.3 nM. The IC50 (LOVO) was 73.4 ± 16.4 nM, the IC50 (RKO) was 74.3 ± 1.9 nM and the IC50 (LS174T) was 158 ± 13 nM. For the same molecule, the IC50 (SW480) was 164 ± 11 nM, the IC50 (HeLa) was 69 ± 9.9 nM and the IC50 (C19) was 252 ± 20.5 nM. The NADPH consumption increase [2] was “ca. three”, the NADPH consumption increase [3] was roughly 14 folds and the “phosphorylation of p53 on serine 46” value (MCF7-Sh-WISP2 cells [4]; 5.7 µM for 48 h (array), 2.4 µM for 72 h (Western blot)) was “decreased phosphorylation”. The BAX expression (MCF7-Sh-WISP2 cells [4]; Western blot, 2.4 µM for 72 h) was “decreased expression”, the “expression levels of HSP60 and HSP70 proteins” value (MCF7-Sh-WISP2 cells [4]; array, 5.7 µM for 48 h) was “marked decrease” and the “p21 protein expression levels” value (MCF7-Sh-WISP2 cells [4]; array, 5.7 µM for 48 h) was “no increase”. For the same molecule, the γ-H2AX signal (MCF7-Sh-WISP2 cells [5]; 24 and 48 h) was “punctuated labeling in their nucleus”, the γ-H2AX signal (MCF7-Sh-WISP2 cells [5]; 3 h) was “no γ-H2AX signal could be detected” and the cell cycle progression (MCF7-Sh-WISP2 cells [6]) was “no significant changes”.
